Values of other authors, collected in patent publication US20260263368A1, “DOUBLE-RELEASE THREE-LAYERED BR[…] AND PREPARATION METHOD THEREOF” (TAIZHOU OVERSEAS PHARMACEUTICALS, LTD., priority 2023, published 2026).

Details: background statement

In the case of CCC[C@@H]1CC(=O)N([C@@H](CC)C(N)=O)C1 [Brivaracetam, (2S)-2-[(4R)-2-oxo-4-propyltetrahydro-1H-pyrrol-1-yl]butanamide], the water solubility is given as “good water solubility”.
